# In patent USH1427H, “Substituted flavonoid compounds, their salts, their manufacture and their use in combination with interleukin-2” (priority 1992, dated 1995):
# Columns and labels:
# [1] = test system: established murine renal cancer; details: established murine renal cancer in BALB/c mice; cited from earlier work
# [2] = test system: Lewis lung carcinoma; details: cited from earlier work
# [3] = test system: interferon; details: preliminary studies, Wiltrout et al.; cited from earlier work
# [4] = test system: natural killer activity; details: cited from earlier work
# [5] = test system: natural killer activity; details: preliminary studies, Wiltrout et al.; cited from earlier work
# [6] = test system: Renca murine renal cancer; details: combined doxorubicin and adoptive immunotherapy with rIL-2; cited from earlier work
# [7] = test system: YAC-1 tumor target; test: Augmentation of NK activity, 4-hr 51Cr release assay with effector leukocytes from treated animals; assay type: in vivo, mice; details: Table 1
# Excerpt: The immunomodulatory activity of boosting NK activity is readily determined in accordance with the protocol outlined by Wiltrout et al. in J. Exp. Med. (1984), vol. 160, p. 1431-1449, which is hereby incorporated by reference. Using this protocol, the flavonoid compounds of the present invention must be capable of boosting NK activity at least 2-fold, preferably at least 3-fold, and most preferably at least 4-fold, as measured in lytic units. (See "In Vitro Methods in Cell Mediated and Tumor Immunity", eds. Barry R. Bloom and John R. David, pub. Academic Press (1976), p. 427, for the definition of lytic units.)
# Assessment of NK activity. […] Effector leukocytes were isolated from spleen, peritoneal cavity, lungs, and liver as previously described (J. Exp. Med., vol. 160, 1431 (1984) and J. Immunol., vol. 135, 1477 (1985)). NK activity was expressed as either [formula] or LU/1×10^7 cells, with one LU being the number of effector cells required to lyse 20% or 40% of the target cells. Statistical comparisons in NK activity were performed by the student's t-test.
# Peak levels of NK-mediated lysis were generally achieved by 24 hour post injection, with levels of NK activity decreasing to background by about day 6.
# [8] = test system: Renca renal adenocarcinoma; test: Survival of Renca-bearing mice treated with flavonoid and/or rIL-2; assay type: in vivo, BALB/C mice; details: Table 1, flavonoid plus rIL-2
# Procedure: Tumor model. The model used for these studies is the Renca renal adenocarcinoma, a tumor that originated spontaneously and is maintained by serial transplant in BALB/C mice (JNCI, vol. 50, 1013 (1973)). […] After injection of 1×10^5 tumor cells under the renal capsule, the solid tumor mass develops rapidly with direct extension to the peritoneal cavity by days 7 to 9 and metastasis to regional lymph nodes and the liver shortly thereafter. […] Flavonoid was administered by injection of 125 mg/kg i.v. and 125 mg/kg i.p., whereas various doses of rIL-2 were delivered by the i.p. route. Routinely, flavonoid was administered 2 to 4 h after nephrectomy of the primary tumor-bearing kidney on day 11, and rIL-2 was administered once per day for 4 successive days beginning on the day after nephrectomy and FAA treatment. Statistical analysis of survival data was performed by the .chi.^2 test.
# The flavonoid compound was administered by injection of e.g. 125 mg/kg i.v. and e.g. 125 mg/kg i.p., whereas various doses of rIL-2 were delivered by the i.p. route. Routinely, flavonoid compound was administered 2 to 4 hours after nephrectomy of the primary tumor-bearing kidney on day 11 and rIL-2 was administered once per day for 4 successive days beginning on the day after nephrectomy and flavonoid treatment. Statistical analysis of survival data was performed by the .chi.^2 test.
# BALB/C mice (e.g. 10/group) were injected i.v. with 1×10^5 Renca tumor cells on day 0. On day 11 the tumor-bearing kidney was removed and 2 to 4 h later flavonoid (125 mg/kg i.v.+125 mg/kg i.p.) was administered to appropriate groups. Subsequently, beginning on day 12, some of the flavonoid pretreated mice and two groups of previously untreated mice received four daily i.p. injections of rIL-2 at doses of 30,000 U/day. Mice were then monitored for survival and statistical analyses performed by the .chi.^2 test.
# [9] = test system: serum IFN; assay type: in vivo; details: Table 1
# [10] = test system: metastatic renal cell cancer; details: clinical trial, selected patients; Marshal et al.; cited from earlier work
# [11] = Preliminary preclinical therapeutic synergy between coumarin and rIL2; assay type: in vivo; details: preliminary preclinical experiments
# Excerpt: In another publication, Wiltrout et al., J. Natl. Cancer Inst.
smiles,measurement,setting,value
O=C(O)Cc1cccc2c(=O)cc(-c3ccccc3)oc12 [flavone-8-acetic acid],"anti-tumor effects, combination of flavone-8-acetic acid plus interleukin-2",[1],synergistic anti-tumor effects
same,susceptibility of Lewis lung carcinoma cells implanted in diffusion chambers in the peritoneum,"[2]; administered ip, diffusion chambers, Finlay et al.",not susceptible
same,anti-tumor effects against Lewis lung carcinoma,"[2]; in vivo, mice, Finlay et al.",pronounced anti-tumor effects
same,tumoricidal activity in vivo compared with direct cytotoxic effects in vitro,"[2]; mouse, in vivo",more pronounced and occurs more rapidly in vivo than direct cytotoxic effects observed in vitro
same,induction of interferon in vitro,[3],failed to detect induction of interferon
same,"natural killer activity, flavone-8-acetic acid plus rIL-2","[4]; combination with rIL-2, normal and tumor-bearing mice, Wiltrout et al.",synergistically augmented natural killer activity
same,natural killer activity in nonlymphoid organs (liver and lungs) as well as in the spleen,"[4]; liver, lungs, spleen, Wiltrout et al.",could augment natural killer activity in nonlymphoid organs (liver and lungs) as well as in the spleen
same,splenic natural killer activity,"[4]; spleen, Ching et al.",augments splenic natural killer activity
same,augmentation of natural killer activity in vitro,[5],failed to detect
COc1cccc2c1C(=O)c1c(O)c3c(c(O)c1C2=O)C[C@@](O)(C(=O)CO)C[C@@H]3O[C@H]1C[C@H](N)[C@H](O)[C@H](C)O1 [doxorubicin],treatment of Renca murine renal cancer,[6],successfully treated
COc1cccc(-c2cc(=O)c3cccc(CC(=O)O)c3o2)c1 [LM2889],NK,[7],+
same,Synergistic Therapy With IL-2,[8],+
same,IFN,[9],+
O=c1ccc2ccccc2o1 [coumarin],anti-tumor activity in patients with metastatic renal cell cancer,[10],demonstrated anti-tumor activity
same,therapeutic synergy between coumarin and rIL2,[11],no therapeutic synergy was observed
C=C(C(=O)O)c1cccc2c(=O)cc(-c3ccccc3)oc12 [LM2891],NK,[7],+
same,Synergistic Therapy With IL-2,[8],+
same,IFN,[9],+
O=C(O)Cc1cccc2c(=O)cc(-c3ccco3)oc12 [LM2888],NK,[7],+
same,Synergistic Therapy With IL-2,[8],I
same,IFN,[9],I
